According to paper PMC10072326, “Promising anticancer agents based on 8-hydroxyquinoline hydrazone copper(II) complexes” (Frontiers in Chemistry, 2023):

How the values were obtained:
plasmid DNA (H2B-GFP) = experiment: Agarose gel electrophoresis of plasmid DNA (DNA migration assay); assay type: biochemical; settings: 200 and 400 μM; overnight; room temperature
Procedure: The nature of the interaction between the complexes and pure plasmid DNA was evaluated by agarose gel electrophoresis as described previously with minor modifications (21). Briefly, free ligands, copper complexes, and cisplatin (200 and 400 μM; in 20 μL total volume) were incubated overnight at room temperature with plasmid DNA (200 ng, H2B-GFP, Addgene #11680). NaN3 (final: 37.5 mM in ddH2O) was used as a ROS scavenger. Samples were run on a 1% agarose gel (100 V, 60 min). The experiments were carried out with two biological replicates, and ImageJ software was used to quantify and analyse the intensity of the bands.
In addition to thermal denaturation, we performed a cell-free DNA binding assays followed by gel electrophoresis to further investigate the nature of the interaction between the complexes and DNA. The assay relies on the fact that the relative amount of the supercoiled form of plasmid DNA will change upon the occurrence of nicks since the relaxed form migrates slower and can be easily detected on the gel. […] The ligands had little to no effect on DNA migration except L^7 (Fig. S24A). However, incubation of plasmid DNA with complexes 1 - 8 confirmed binding to DNA and changed the supercoiling status by increasing the nicked circular form (Fig. S24). […] To understand whether the induction of DNA nicks requires ROS, the samples were pre-incubated with a ROS scavenger, NaN3. […]

S. aureus MRSA 272123 = experiment: MIC determination; assay type: cell-based, Staphylococcus aureus; settings: 18 h

CC(=O)[O-].O=C(NN=Cc1ccc2cccc([O-])c2n1)c1ccccc1.[Cu+2] [Complex 1, [Cu(HL^1)(AcO)]]
effect on plasmid DNA migration / nicking (plasmid DNA (H2B-GFP)): highest nicking efficiency | MIC (S. aureus MRSA 272123): 50 µM
